Laboratory results: BindingDB's records for doi:10.1016/s0960-894x(01)00543-1 (Harvard Medical School, 2001)

Test: Binding affinity towards Opioid receptor delta 1 in guinea pig brain membranes using [3H]naltrindole as radioligand

| SMILES | Ki [nM] |
| --- | --- |
| O=C(CCN1CCC23CCCC[C@H]2[C@H]1Cc1cc(O)ccc13)c1ccccc1 [3-[5-hydroxy-(1R,9R,10R)-17-azatetracyclo[7.5.3.01,10.02,7]heptadeca-2(7),3,5-trien-17-yl]-1-phenyl-1-propanone] | 23 |
| Oc1ccc2c(c1)C[C@@H]1[C@@H]3CCCCC23CCN1CCC(O)c1cccs1 (stereo partly specified) [MCL-122] | 110 |
| Oc1ccc2c(c1)C[C@@H]1[C@@H]3CCCCC23CCN1CCCF [17-(3-fluoropropyl)-(1R,9R,10R)-17-azatetracyclo[7.5.3.01,10.02,7]heptadeca-2(7),3,5-trien-5-ol] | 0.85 |
| CC(C)CN1CCC23CCCC[C@H]2[C@H]1Cc1cc(O)ccc13 [MCL-108] | 5.6 |
| O=C(CCN1CCC23CCCC[C@H]2[C@H]1Cc1cc(O)ccc13)c1cccs1 [3-[5-hydroxy-(1R,9R,10R)-17-azatetracyclo[7.5.3.01,10.02,7]heptadeca-2(7),3,5-trien-17-yl]-1-(2-thienyl)-1-propanone] | 10 |
| Oc1ccc2c(c1)C[C@@H]1[C@@H]3CCCCC23CCN1CCC(O)c1ccco1 (stereo partly drawn) [1-(2-furyl)-3-[5-hydroxy-(1R,9R,10R)-17-azatetracyclo[7.5.3.01,10.02,7]heptadeca-2(7),3,5-trien-17-yl]-1-propanol] | 29 |
| N#CCCCN1CCC23CCCC[C@H]2[C@H]1Cc1cc(O)ccc13 [3-[5-hydroxy-(1R,9R,10R)-17-azatetracyclo[7.5.3.01,10.02,7]heptadeca-2(7),3,5-trien-17-yl]propyl cyanide] | 3.1 |
| Oc1ccc2c(c1)C[C@@H]1[C@@H]3CCCCC23CCN1CC1CCCC1 [17-cyclopentylmethyl-17-azatetracyclo[7.5.3.01,10.02,7]heptadeca-2(7),3,5-trien-5-ol] | 6.9 |
| Oc1ccc2c(c1)C[C@@H]1[C@@H]3CCCCC23CCN1CCC(F)(F)F [17-(3,3,3-trifluoropropyl)-(1R,9R,10R)-17-azatetracyclo[7.5.3.01,10.02,7]heptadeca-2(7),3,5-trien-5-ol] | 27 |
| Oc1ccc2c(c1)C[C@@H]1[C@@H]3CCCCC23CCN1CCC(O)c1ccccc1 (stereo partly specified) [MCL-121] | 130 |
| COCCN1CCC23CCCC[C@H]2[C@H]1Cc1cc(O)ccc13 [MCL-110] | 0.54 |
| N#CCCN1CCC23CCCC[C@H]2[C@H]1Cc1cc(O)ccc13 [2-[5-hydroxy-(1R,9R,10R)-17-azatetracyclo[7.5.3.01,10.02,7]heptadeca-2(7),3,5-trien-17-yl]ethyl cyanide] | 2.6 |
| Oc1ccc2c(c1)C[C@@H]1[C@@H]3CCCCC23CCN1CCc1ccccc1 [17-phenethyl-(1R,9R,10R)-17-azatetracyclo[7.5.3.01,10.02,7]heptadeca-2(7),3,5-trien-5-ol] | 3.1 |
| Oc1ccc2c(c1)C[C@@H]1[C@@H]3CCCC[C@]23CCN1C/C=C/I | 27 |
| CCOCCN1CCC23CCCC[C@H]2[C@H]1Cc1cc(O)ccc13 [17-(2-ethoxyethyl)-(1R,9R,10R)-17-azatetracyclo[7.5.3.01,10.02,7]heptadeca-2(7),3,5-trien-5-ol] | 5.6 |
| Oc1ccc2c(c1)C[C@@H]1[C@@H]3CCCCC23CCN1Cc1ccccc1 [17-benzyl-(1R,9R,10R)-17-azatetracyclo[7.5.3.01,10.02,7]heptadeca-2(7),3,5-trien-5-ol] | 420 |
| O=C(CCN1CCC23CCCC[C@H]2[C@H]1Cc1cc(O)ccc13)c1ccco1 [1-(2-furyl)-3-[5-hydroxy-(1R,9R,10R)-17-azatetracyclo[7.5.3.01,10.02,7]heptadeca-2(7),3,5-trien-17-yl]-1-propanone] | 42 |
| Oc1ccc2c(c1)C[C@@H]1[C@@H]3CCCCC23CCN1CCOc1ccccc1 [MCL-127] | 33 |
| Oc1ccc2c(c1)C[C@@H]1[C@@H]3CCCCC23CCN1CC1CCCCC1 [17-(N-cyclohexylmethyl)-(1R,9R,10R)-17-azatetracyclo[7.5.3.01,10.02,7]heptadeca-2(7),3,5-trien-5-ol] | 69 |
| Oc1ccc2c(c1)C[C@@H]1[C@@H]3CCCCC23CCN1Cc1ccco1 [MCL-119] | 8.5 |
| C=CCN1CCC23CCCC[C@H]2[C@H]1Cc1cc(O)ccc13 [17-allyl-(1R,9R,10R)-17-azatetracyclo[7.5.3.01,10.02,7]heptadeca-2(7),3,5-trien-5-ol] | 4.1 |
